A short description of data set [1]: Solubility of GA in solvents and solvent blends. Format: physicochemical. On the procedure:
Gibberellic acid (GA) of 92% purity as a dry powder was used in these laboratory studies. The solvents and reagents were of reagent grade purity.
Also, the GA was easier to dissolve in the solvent blends because they were not as viscous as the single solvents. Moreover, the solvent blends had high flash points. A flash point above 140° F. is very desirable because there are less regulatory restrictions on manufacturing, transportation, and storage.

A further data set concerns apple trees. As to the kind of experiment: Phytotoxicity of sprayed aqueous solvents, field tests. In kind it is in vivo. Conditions: sprayed 1 to 2% aqueous solutions; field tests with apple trees. On the procedure:
(§1) The potential for phytotoxicity (plant injury) by spraying 1 to 2% aqueous solutions of ethyl lactate and solvent blends with ethyl lactate, as well as other ingredients such as glycerol and soy methyl esters was evaluated in field tests with apple trees and in greenhouse tests with corn, green bean, cucumber, tomato, ryegrass and hosta seedlings.

In data set [2] the test system is corn, green bean, cucumber, tomato, ryegrass and hosta seedlings. The data set is described as follows: Phytotoxicity of sprayed aqueous solvents, greenhouse tests. Format: in vivo. The note with it: sprayed 1 to 2% aqueous solutions; greenhouse tests with seedlings. As for the experimental part:
as §1

In a further data set the test system is dwarf morning glory. Conditions: cited from earlier work.
In a further data set the test system is pea seedlings. The note with it: cited from earlier work.

The values below come from patent publication US20060172890A1, “Liquid formulation of a plant growth regulator” (priority 2004, published 2006).

Where two headings read alike, the source gives them in different places.

Regarding `C=C1C[C@]23C[C@@]1(O)CC[C@H]2[C@@]12C=C[C@H](O)[C@@](C)(C(=O)O1)[C@H]2[C@@H]3C(=O)O` [GA, Gibberellic acid], in data set [1] (80:20 (w/w) ethyl lactate with propylene glycol or glycerol), the “solubility of GA in the solvent blends compared with ethyl lactate alone” value is “twice as much”. Further, in data set [1] (glycerol alone, solution very viscous and difficult to mix), the “amount of GA dissolved in glycerol” value is reported as “a small amount”. For the same molecule, the “effect of mild heating on dissolution of GA in ethyl lactate” value in data set [1] (mild heating to 60° C.) is “did not increase the dissolution”. Further, the “amount of GA dissolved in propylene glycol” value in data set [1] (propylene glycol alone, solution very viscous and difficult to mix) is listed as “a small amount”. Moreover, the “solubility of GA in ethyl lactate alone” value in data set [1] (room temperature) is on record as “approximately 2 % (w/w)”.
As for `CCOC(=O)C(C)O` (centres unmarked) [ethyl lactate], the “phytotoxicity (plant injury)” value (in the data set on apple trees; in data set [2]) was “no evidence of phytotoxicity” each time.
Consider gibberellin, for which the figures for the effect on flowering result in the data set on dwarf morning glory (2 to 20 micrograms) and in the data set on dwarf morning glory (application of 0.02 micrograms) were “inhibits flowering” and “promotes flowering”, respectively. The “effect on shoot length” value in the data set on pea seedlings (ten micrograms applied at 3 days old) was “nearly doubled shoot length”; in the data set with pea seedlings (ten micrograms, 9 day old seedlings), “barely affected”.
